Read-outs that look alike come from different tables or passages of the source.
How the values were obtained:
Assay type in all cases: cell-based
[1] = tested on: Aβ-40; assay: MSD Human (6E10) Ab 3-PLEX elisa, conditioned media of 2B7 cells: Aβ-40; settings: for IC50: Homo sapiens, Aβ-40 (superscript b)
Experimental: (§1) Assays were conducted to determine the ability of a Compound of Formula I to modulate […], and Aβ-38.
(§2) Plates with capture antibodies were blocked for 1-2 hours at room temperature with 150 μL of the manufactures blocking reagent.
(§3) Conditioned Media: • Cultured 2B7 cells in 96 well plate with 250 uL of media per well until confluent; • Prepared serial dilutions of compounds in DMSO at 100× the final desired concentration; • Washed wells with 2B7 cells 1× with 250 uL of media; • Diluted DMSO stocks 1:100 into media: • Added 250 μL of media containing compounds (1% DMSO) to wells with 2B7 cells for 5 hours at 37° C.
(§4) Elisa Sample Prep: • Diluted conditioned media: 1 part media with 1% DMSO and 1 part blocking buffer; • 150 μL of the 250 μL of conditioned media were used.
(§5) […] CURVE SAMPLE PREP: Prepared per manufacturer's protocol (see above) • Seven point standard curve samples were prepared that contained Aβ-42, Aβ-40, and Aβ-38. The highest concentration of Aβ-42 and Aβ-3-38 was 3,000 pg/mL and the highest concentration of Aβ-40 was 10,000 pg/mL. Subsequent serial dilutions were 1:3 and the final composition of each sample was 1 part blocking buffer and 1 part cell medium containing 1% DMSO.
(§6) Overnight Sample Incubation: • Blocked plates are washed 5× with MSD wash buffer with a plate washer • 25 uL of detection antibody and blocker G reagent in MSD blocking solution is added • 25 uL of samples (1 part conditioned media containing 1% DMSO and 1 part MSD blocking buffer) are then added. • plates are incubated overnight at 4 degrees C. or 2 hours at room temp
(§7) Final Wash and Readout: • Wash wells 5× with MSD wash buffer • Added 150 μL 2×MSD read buffer • Read with MSD imager.
(§8) A-Beta peptide levels for each peptide are calculated from the standard curve using the MSD software provided with the MSD 2400 Imager. Percent vehicle values for each compound dosage were then calculated and fit to a 4 parameter curve generating IC50 values.

[2] = tested on: Aβ-42; assay: MSD Human (6E10) Ab 3-PLEX elisa, conditioned media of 2B7 cells: Aβ-42; settings: for IC50: Aβ-42 (superscript c)
Experimental: as §1, §2, §3, §4, §5, §6, §7, §8

[3] = tested on: Aβ-38; assay: MSD Human (6E10) Ab 3-PLEX elisa, conditioned media of 2B7 cells: Aβ-38; settings: for IC50: Aβ-38 (superscript a)
Experimental: as §1, §2, §3, §4, §5, §6, §7, §8

[4] = tested on: amyloid-beta (1-42) peptide; assay: ELISA assay of amyloid-beta (1-42) in conditioned media of 2B7 cells; settings: for IC50: Aβ-42, 2B7 cells, 5 hours, read-out: IC50 range; for inhibition at 10 µM: Aβ-42, 10 umol/L
In short: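 2B7 cells were treated with compounds for 5 hours at 37° C in media with 1% DMSO. Conditioned media, diluted 1:2 in blocking buffer, went into a sandwich ELISA with 6E10 capture and an HRP-labelled detection antibody, read by TMB at 450 nm. Values came from an Aβ peptide standard curve.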

[5] = Homo sapiens, read-out: 50% reduction value
[6] = Homo sapiens, read-out: IC50 range
[7] = Aβ-42, 100 umol/L, read-out: % Inhibition (range)

CC1CC(C(=O)O)OC2C1C1(C)CCC34CC35CCC(O)C(C)(C)C5CCC4C1(C)C2O (stereo not drawn) [drawing 1208]
% Inh. (range) ([1]; Aβ-40, 20 μM): F^a (20 μM) F^b (20 μM) F^c (20 μM) (% inhibition of <25%)
% Inh. (range) ([2]; Aβ-42, 20 μM): F^a (20 μM) F^b (20 μM) F^c (20 μM) (% inhibition of <25%)
% Inh. (range) ([3]; Aβ-38, 20 μM): F^a (20 μM) F^b (20 μM) F^c (20 μM) (% inhibition of <25%)

CC(=O)OC(C1CC(C)C2C(O1)C(O)C1(C)C3CCC4C(C)(C)C(OC5CN(S(C)(=O)=O)CCO5)CCC45CC35CCC21C)C(C)(C)O (stereo not drawn) [drawing 1204]
% Inh. (range) ([1]; Aβ-40, 100 μM): E^b (100 μM) (% inhibition of 25-75%)
IC50 ([2]; read-out: 50% reduction value): < 1 µM
IC50 ([2]; read-out: IC50 range): < 1 µM
IC50 ([3]; read-out: 50% reduction value): < 1 µM

CC(C)C(=O)N1CCOC(OC2CC[C@]34C[C@]35CC[C@]3(C)[C@@H]6C(OC([C@H](OC(=O)N7CCC7)C(C)C)C[C@H]6C)[C@H](O)[C@@]3(C)C5CC[C@H]4C2(C)C)C1 (stereo partly drawn)
IC50 ([1]; read-out: 50% reduction value): 1 to 10 µM
IC50 ([1]; read-out: IC50 range): > 10 µM
IC50 [2, 5]: < 1 µM
IC50 [2, 6]: < 1 µM
IC50 [3, 5]: < 1 µM
IC50 [3, 6]: < 1 µM

CCO[C@@H](C1C[C@@H](C)[C@H]2C(O1)[C@H](O)[C@@]1(C)C3CC[C@H]4C(C)(C)C(O[C@H]5CN([C@@H](C)C(=O)O)CCO5)CC[C@@]45C[C@@]35CC[C@]21C)C(C)(C)O (stereo partly drawn)
IC50 ([1]; read-out: 50% reduction value): > 10 µM
IC50 [2, 5]: < 1 µM
IC50 [2, 6]: < 1 µM
IC50 [3, 5]: < 1 µM

CCO[C@@H]([C@H]1C[C@@H](C)[C@H]2[C@H](O1)[C@H](O)[C@@]1(C)[C@@H]3CC[C@H]4C(C)(C)[C@@H](OC5CNCCO5)CC[C@@]45C[C@@]35CC[C@]21C)C(C)(C)O (stereo partly drawn)
IC50 ([1]; read-out: 50% reduction value): 1 to 10 µM
IC50 ([1]; read-out: IC50 range): 1 to 10 µM
IC50 [2, 5]: < 1 µM
IC50 [2, 6]: < 1 µM
IC50 [3, 5]: < 1 µM
IC50 [3, 6]: < 1 µM

C[C@@H]1CC(CN(C)[C@@H](C)C(=O)O)OC2[C@H]1[C@@]1(C)CC[C@@]34C[C@@]35CC[C@H](O[C@H]3CN(C(=O)CC6CC6)CCO3)C(C)(C)[C@@H]5CCC4[C@]1(C)[C@H]2O (stereo partly drawn) [drawing 1142]
% Inh. (range) ([1]; Aβ-40, 100 μM, 100 µM): E^a (100 μM) E^b (100 μM) E^c (100 μM) (% inhibition of 25-75%)
inhibition at 100 µM ([2]; Homo sapiens, Aβ-42, 100 μM): 25 to 75%
inhibition at 100 µM ([3]; Homo sapiens, Aβ-38, 100 μM): 25 to 75%

CC(=O)N(CC1CC(C)C2C(O1)C(O)C1(C)C3CCC4C(C)(C)C(O)CCC45CC35CCC21C)CC(C)(C)C (stereo not drawn)
IC50 [4]: 1 to 10 µM

CN[C@H]1CC[C@]23C[C@]24CC[C@]2(C)C5C(O[C@@H]([C@H](OC(C)=O)C(C)(C)O)C[C@H]5C)[C@H](O)[C@@]2(C)[C@@H]4CC[C@H]3C1(C)C (stereo partly drawn)
IC50 ([4]; 5 h): 1 to 10 µM

C[C@@H]1C[C@H]([C@@H]2OC(=O)OC2(C)C)OC2C1[C@@]1(C)CC[C@@]34C[C@@]35CC[C@H](O)C(C)(C)[C@@H]5CC[C@H]4[C@]1(C)[C@H]2O (stereo partly drawn)
inhibition at 100 µM [4, 7]: 25 to 75%

C[C@@H]1CC(CNC(C(=O)O)C(F)(F)F)OC2[C@H]1[C@@]1(C)CC[C@@]34C[C@@]35CC[C@H](O[C@H]3CN(C(=O)CC6CC6)CCO3)C(C)(C)[C@@H]5CCC4[C@]1(C)[C@H]2O (stereo partly drawn)
IC50 ([1]; read-out: IC50 range): 1 to 10 µM
IC50 [2, 6]: 1 to 10 µM

CC1CC(C(O)C(C)(C)O)OC2C1C1(C)CCC34CC35CCC(OC3CN(C(=O)Cc6ccc(F)cc6)CCO3)C(C)(C)C5CCC4C1(C)C2O (stereo not drawn)
% Inhibition (range) ([4]; Aβ-42, 20 umol/L): E E (% inhibition of 25-75%)
% Inhibition (range) ([4]; Aβ-42, 100 umol/L): E E (% inhibition of 25-75%)

CC(=O)O[C@@H]([C@H]1C[C@@H](C)C2C(O1)[C@H](O)[C@@]1(C)[C@@H]3CC[C@H]4C(C)(C)[C@H](O)CC[C@@]45C[C@@]35CC[C@]21C)C(C)(C)O (stereo partly drawn) [drawing 925]
IC50 ([4]; 5 h): ≤ 1 µM

CC1CC(C(O)C(C)(C)O)OC2C1C1(C)CCC34CC35CCC(OC3CN(C(=O)CN(C)C)CCO3)C(C)(C)C5CCC4C1(C)C2O (stereo not drawn)
IC50 [4]: 1 to 10 µM

CC1CC(CCC(=O)O)OC2C1C1(C)CCC34CC35CCC(OC3CN(C(=O)CC6CC6)CCO3)C(C)(C)C5CCC4C1(C)C2O (stereo not drawn)
IC50 [4]: 1 to 10 µM

CC(=O)O[C@@H]([C@H]1C[C@@H](C)C2=C(O1)C(=O)[C@@]1(C)[C@@H]3CC[C@H]4C(C)(C)C(=O)CC[C@@]45C[C@@]35CC[C@]21C)C(C)(C)O
inhibition at 10 µM ([4]; read-out: % Inhibition (range)): < 25%

CCCN1CCO[C@@H](O[C@H]2CC[C@]34C[C@]35CC[C@]3(C)[C@@H]6[C@H](O[C@@H]([C@H](OC(C)=O)C(C)(C)O)C[C@H]6C)[C@H](O)[C@@]3(C)[C@@H]5CC[C@H]4C2(C)C)C1
IC50 ([4]; 5 h): 1 to 10 µM

CC(=O)O[C@@H]([C@H]1C[C@@H](C)C2=C(O1)[C@H](O)[C@@]1(C)[C@@H]3CC[C@H]4C(C)(C)[C@@H](O)CC[C@@]45C[C@@]35CC[C@]21C)C(C)(C)O
IC50 ([4]; 5 h): < 10 µM
inhibition at 10 µM ([4]; read-out: % Inhibition (range)): > 75%

CC(=O)O[C@@H]([C@H]1C[C@@H](C)C2C(O1)[C@H](O)[C@@]1(C)[C@@H]3CC[C@H]4C(C)(C)[C@@H](OC5CN(CC(N)=O)CCO5)CC[C@@]45C[C@@]35CC[C@]21C)C(C)(C)O (stereo partly drawn) [drawing 942]
IC50 ([4]; 5 h): ≤ 1 µM

CC(=O)N(CC1CC(C)C2C(O1)C(O)C1(C)C3CCC4C(C)(C)C(OC(=O)c5cccnc5)CCC45CC35CCC21C)C1CCC1 (stereo not drawn)
IC50 [4]: > 10 µM

C[C@@H]1C[C@H]([C@H](O)C(C)(C)O)O[C@H]2[C@H]1[C@@]1(C)CC[C@@]34C[C@@]35CC[C@H](O[C@H]3CN(CC(N)=O)CCO3)C(C)(C)[C@@H]5CC[C@H]4[C@]1(C)[C@H]2O
IC50 ([4]; 5 h): > 10 µM
inhibition at 20 µM ([4]; Aβ-42, 20 umol/L, read-out: % Inhibition (range)): < 25%

CC1CC(C(O)C(C)(C)O)OC2C1C1(C)CCC34CC35CCC(OC3CN(C6CCOCC6)CCO3)C(C)(C)C5CCC4C1(C)C2O (stereo not drawn)
% Inhibition (range) ([4]; Aβ-42, 20 umol/L): E (% inhibition of 25-75%)

CC(=O)O[C@@H]([C@H]1C[C@@H](C)[C@H]2[C@H](O1)[C@H](O)[C@@]1(C)[C@@H]3CC[C@H]4C(C)(C)C(OC(=O)C5CCCO5)CC[C@@]45C[C@@]35CC[C@]21C)C(C)(C)O (stereo partly drawn)
IC50 ([4]; 5 h): ≤ 1 µM

CC1CC(C(O)C(C)(C)O)OC2C1C1(C)CCC34CC35CCC(OC3CN(C6CCOC6)CCO3)C(C)(C)C5CCC4C1(C)C2O (single isomer, unassigned) [drawing 1105]
% Inhibition (range) ([4]; Aβ-42, 20 umol/L): F (% inhibition of <25%)

CC(=O)O[C@@H]([C@H]1C[C@@H](C)C2C(O1)[C@H](O)[C@@]1(C)[C@@H]3CC[C@H]4C(C)(C)[C@H](N)CC[C@@]45C[C@@]35CC[C@]21C)C(C)(C)O (stereo partly drawn)
inhibition at 100 µM [4, 7]: 25 to 75%

CC(=O)OCC1CC(C)C2C(O1)C(O)C1(C)C3CCC4C(C)(C)C(OC(=O)c5cccnc5)CCC45CC35CCC21C (stereo not drawn) [drawing 832]
IC50 [4]: 1 to 10 µM

CC1CC(CN2C(=O)OCC2(C)C)OC2C1C1(C)CCC34CC35CCC(O)C(C)(C)C5CCC4C1(C)C2O (stereo not drawn)
IC50 [4]: > 10 µM

CC(=O)O[C@@H]([C@H]1C[C@@H](C)[C@H]2[C@H](O1)/C(=N/O)[C@H]1C3CCC4C(C)(C)[C@@H](OC5OC[C@@H](O)[C@H](O)[C@H]5O)CC[C@@]45C[C@@]35CC[C@]21C)C(C)(C)O (stereo partly drawn)
IC50 ([4]; 5 h): ≤ 1 µM

CC(=O)O[C@@H]([C@H]1C[C@@H](C)[C@H]2[C@H](O1)[C@H](O)[C@@]1(C)[C@@H]3CC[C@H]4C(C)(C)[C@@H](O[C@H]5CN(C6CCC6)CCO5)CC[C@@]45C[C@@]35CC[C@]21C)C(C)(C)O
IC50 ([4]; 5 h): ≤ 1 µM

CC(=O)N(Cc1cc(F)cc(F)c1)CC1CC(C)C2C(O1)C(O)C1(C)C3CCC4C(C)(C)C(OC(=O)C5CN(C(=O)OC(C)(C)C)C5)CCC45CC35CCC21C (stereo not drawn)
IC50 [4]: > 10 µM

CC1COC2C[C@H]3[C@@H]4CCC5C[C@@H](O)CC[C@]5(C)[C@H]4CC[C@]3(C)C2[C@@H]1C (stereo partly drawn)
inhibition at 10 µM ([4]; read-out: % Inhibition (range)): < 25%

From patent US20110251379A1, “COMPOUNDS USEFUL FOR TREATING NEURODEGENERATIVE DISORDERS” (Satori Pharmaceuticals, Inc., priority 2010, published 2011)
